Experiments:
Escherichia coli WP2uvrA = assay: Ames test (reverse mutation test), pre-incubation method, strain WP2uvrA; format: cell-based
Description: (§1) Ames Test (Reverse Mutation Test)
Two plates per treatment were used.

[1] = test system: Salmonella typhimurium TA1535; assay: Ames test (reverse mutation test), pre-incubation method, strain TA1535; format: cell-based
Method: as §1
(§2) Metabolites 1 to 3 and Metabolites A to E were each tested herein. The purpose of this test is to evaluate the potential of each metabolite to induce reverse mutations in the standard strains of Salmonella typhimurium (TA98, TA1537, TA100, and TA1535) and Escherichia coli (WP2uvrA), in either the presence or absence of a rat liver metabolic activation system (S9 mix).
(§3) The solvent used herein was dimethyl sulfoxide (DMSO, 100 μL/plate).
(§4) The test was performed by the pre-incubation method with or without S9 mix. When the test was performed without S9 mix, sodium phosphate buffer solution (pH 7.4) was added.
(§5) 0.5 mL of S9 mix or 0.5 mL of 0.1 mol/L sodium phosphate buffer solution (pH 7.4), and 0.1 mL of the bacterial culture solution were added to a test tube containing 0.1 mL of the negative control formulation (DMSO alone), the metabolite, or the positive control formulation. The mixtures were pre-incubated at 37° C. for 20 minutes while shaking. After the pre-incubation period, 2 mL of top agar were added and the mixtures were vortex-mixed and seeded onto plates. Two plates per treatment were used. Each plate was incubated at 37±1° C. for 48 hours or more and the revertant colonies were counted. The mean number of revertant colonies for each treatment plate was then calculated. The presence or absence of growth inhibition due to any antibacterial effect of the test article and precipitation of the test article was observed grossly or under a stereomicroscope. […] Evaluation was based on mean values with no statistical comparisons being used.

[2] = test system: Salmonella typhimurium TA98; assay: Ames test (reverse mutation test), pre-incubation method, strain TA98
Method: as §1, §2, §3, §4, §5

[3] = test system: Salmonella typhimurium TA100; assay: Ames test (reverse mutation test), pre-incubation method, strain TA100; format: cell-based
Method: as §1, §2, §3, §4, §5

[4] = test system: Salmonella typhimurium TA1537; assay: Ames test (reverse mutation test), pre-incubation method, strain TA1537; format: cell-based; settings: for potential to induce reverse mutations: TA1537
Method: as §1, §2, §3, §4, §5

With `CC(C)(Oc1cc(F)cc(-c2cc(N)nn2-c2cnc(C(F)(F)F)nc2)c1)C(F)(F)F` [Metabolite 1] the “Number of revertant colonies WP2uvrA” value (Escherichia coli WP2uvrA; S9 mix +, dose 6.9 μg/plate) was 18, the “Number of revertant colonies WP2uvrA” value (Escherichia coli WP2uvrA; S9 mix +, dose 21 μg/plate) was 20 and the “Number of revertant colonies WP2uvrA” value (Escherichia coli WP2uvrA; S9 mix +, dose 62 μg/plate) was 18. For the same molecule, the “Number of revertant colonies WP2uvrA” value (Escherichia coli WP2uvrA; S9 mix +, dose 185 μg/plate) was 16, the “Number of revertant colonies WP2uvrA” value (Escherichia coli WP2uvrA; S9 mix +, dose 556 μg/plate) was 18 and the “Number of revertant colonies WP2uvrA” value (Escherichia coli WP2uvrA; S9 mix +, dose 1667 μg/plate) was 14. For the same molecule, the “Number of revertant colonies WP2uvrA” value (Escherichia coli WP2uvrA; S9 mix +, dose 5000 μg/plate) was 11, the “Number of revertant colonies WP2uvrA” value (Escherichia coli WP2uvrA; S9 mix −, dose 6.9 μg/plate) was 17 and the “Number of revertant colonies WP2uvrA” value (Escherichia coli WP2uvrA; S9 mix −, dose 21 μg/plate) was 19. For the same molecule, the “Number of revertant colonies WP2uvrA” value (Escherichia coli WP2uvrA; S9 mix −, dose 62 μg/plate) was 16, the “Number of revertant colonies WP2uvrA” value (Escherichia coli WP2uvrA; S9 mix −, dose 185 μg/plate) was 17 and the “Number of revertant colonies WP2uvrA” value (Escherichia coli WP2uvrA; S9 mix −, dose 556 μg/plate) was 18. The “Number of revertant colonies WP2uvrA” value (Escherichia coli WP2uvrA; S9 mix −, dose 1667 μg/plate) was 15, the “Number of revertant colonies WP2uvrA” value (Escherichia coli WP2uvrA; S9 mix −, dose 5000 μg/plate) was 9 and the “Number of revertant colonies TA1535” value ([1]; S9 mix +, dose 6.9 μg/plate) was 10. The “Number of revertant colonies TA1535” value ([1]; S9 mix +, dose 21 μg/plate) was 8, the “Number of revertant colonies TA1535” value ([1]; S9 mix +, dose 62 μg/plate) was 9 and the “Number of revertant colonies TA1535” value ([1]; S9 mix +, dose 185 μg/plate) was 10. For the same molecule, the “Number of revertant colonies TA1535” value ([1]; S9 mix +, dose 556 μg/plate) was 9, the “Number of revertant colonies TA1535” value ([1]; S9 mix +, dose 1667 μg/plate) was 10 and the “Number of revertant colonies TA1535” value ([1]; S9 mix +, dose 5000 μg/plate) was 7. The “Number of revertant colonies TA1535” value ([1]; S9 mix −, dose 6.9 μg/plate) was 11, the “Number of revertant colonies TA1535” value ([1]; S9 mix −, dose 21 μg/plate) was 10 and the “Number of revertant colonies TA1535” value ([1]; S9 mix −, dose 62 μg/plate) was 9. The “Number of revertant colonies TA1535” value ([1]; S9 mix −, dose 185 μg/plate) was 7, the “Number of revertant colonies TA1535” value ([1]; S9 mix −, dose 556 μg/plate) was 9 and the “Number of revertant colonies TA1535” value ([1]; S9 mix −, dose 1667 μg/plate) was 5. For the same molecule, the “Number of revertant colonies TA1535” value ([1]; S9 mix −, dose 5000 μg/plate) was 7, the “Number of revertant colonies TA98” value ([2]; S9 mix +, dose 185 μg/plate) was 40 and the “Number of revertant colonies TA98” value ([2]; S9 mix −, dose 21 μg/plate) was 32. For the same molecule, the “Number of revertant colonies TA100” value ([3]; S9 mix +, dose 6.9 μg/plate) was 132, the “Number of revertant colonies TA100” value ([3]; S9 mix +, dose 21 μg/plate) was 132 and the “Number of revertant colonies TA100” value ([3]; S9 mix +, dose 62 μg/plate) was 113. The “Number of revertant colonies TA100” value ([3]; S9 mix +, dose 185 μg/plate) was 108, the “Number of revertant colonies TA100” value ([3]; S9 mix +, dose 556 μg/plate) was 128 and the “Number of revertant colonies TA100” value ([3]; S9 mix +, dose 1667 μg/plate) was 131. The “Number of revertant colonies TA100” value ([3]; S9 mix +, dose 5000 μg/plate) was 121, the “Number of revertant colonies TA100” value ([3]; S9 mix −, dose 6.9 μg/plate) was 89 and the “Number of revertant colonies TA100” value ([3]; S9 mix −, dose 21 μg/plate) was 87. The “Number of revertant colonies TA100” value ([3]; S9 mix −, dose 62 μg/plate) was 87, the “Number of revertant colonies TA100” value ([3]; S9 mix −, dose 185 μg/plate) was 89 and the “Number of revertant colonies TA100” value ([3]; S9 mix −, dose 556 μg/plate) was 80. For the same molecule, the “Number of revertant colonies TA100” value ([3]; S9 mix −, dose 1667 μg/plate) was 69, the “Number of revertant colonies TA100” value ([3]; S9 mix −, dose 5000 μg/plate) was 47 and the “Number of revertant colonies TA1537” value ([4]; S9 mix +, dose 6.9 μg/plate) was 13. The “Number of revertant colonies TA1537” value ([4]; S9 mix +, dose 21 μg/plate) was 12, the “Number of revertant colonies TA1537” value ([4]; S9 mix +, dose 62 μg/plate) was 13 and the “Number of revertant colonies TA1537” value ([4]; S9 mix +, dose 185 μg/plate) was 13. For the same molecule, the “Number of revertant colonies TA1537” value ([4]; S9 mix +, dose 556 μg/plate) was 10, the “Number of revertant colonies TA1537” value ([4]; S9 mix +, dose 1667 μg/plate) was 9 and the “Number of revertant colonies TA1537” value ([4]; S9 mix +, dose 5000 μg/plate) was 4. For the same molecule, the “Number of revertant colonies TA1537” value ([4]; S9 mix −, dose 6.9 μg/plate) was 8, the “Number of revertant colonies TA1537” value ([4]; S9 mix −, dose 21 μg/plate) was 8 and the “Number of revertant colonies TA1537” value ([4]; S9 mix −, dose 62 μg/plate) was 8. The “Number of revertant colonies TA1537” value ([4]; S9 mix −, dose 185 μg/plate) was 9, the “Number of revertant colonies TA1537” value ([4]; S9 mix −, dose 556 μg/plate) was 9 and the “Number of revertant colonies TA1537” value ([4]; S9 mix −, dose 1667 μg/plate) was 5. For the same molecule, the “Number of revertant colonies TA1537” value ([4]; S9 mix −, dose 5000 μg/plate) was 3.
In the case of `Nc1cc(-c2cccc(OCC(F)(F)F)c2)n(-c2ccc(F)cc2)n1` [Metabolite B, reference compound], the “potential to induce reverse mutations” value ([1]; TA1535, in the presence of S9 mix) is reported as “had potential to induce reverse mutations”, the “potential to induce reverse mutations” value ([2]; TA98, in the presence of S9 mix) is reported as “had potential to induce reverse mutations” and the “potential to induce reverse mutations” value ([3]; TA100, in the presence of S9 mix) is reported as “had potential to induce reverse mutations”. The “potential to induce reverse mutations” value ([4]; in the absence of S9 mix) was “had potential to induce reverse mutations” and the “potential to induce reverse mutations” value ([4]; in the presence of S9 mix) was “had potential to induce reverse mutations”.
For `Nc1cc(-c2cc(F)cc(OC(F)(F)F)c2)n(-c2cncc(C(F)(F)F)c2)n1` [Metabolite 3], the “Number of revertant colonies WP2uvrA” value (Escherichia coli WP2uvrA; S9 mix +, dose 6.9 μg/plate) was 22, the “Number of revertant colonies WP2uvrA” value (Escherichia coli WP2uvrA; S9 mix +, dose 21 μg/plate) was 22 and the “Number of revertant colonies WP2uvrA” value (Escherichia coli WP2uvrA; S9 mix +, dose 62 μg/plate) was 21. The “Number of revertant colonies WP2uvrA” value (Escherichia coli WP2uvrA; S9 mix +, dose 185 μg/plate) was 21, the “Number of revertant colonies WP2uvrA” value (Escherichia coli WP2uvrA; S9 mix +, dose 556 μg/plate) was 18 and the “Number of revertant colonies WP2uvrA” value (Escherichia coli WP2uvrA; S9 mix +, dose 1667 μg/plate) was 21. For the same molecule, the “Number of revertant colonies WP2uvrA” value (Escherichia coli WP2uvrA; S9 mix +, dose 5000 μg/plate) was 19, the “Number of revertant colonies WP2uvrA” value (Escherichia coli WP2uvrA; S9 mix −, dose 6.9 μg/plate) was 23 and the “Number of revertant colonies WP2uvrA” value (Escherichia coli WP2uvrA; S9 mix −, dose 21 μg/plate) was 15. The “Number of revertant colonies WP2uvrA” value (Escherichia coli WP2uvrA; S9 mix −, dose 62 μg/plate) was 23, the “Number of revertant colonies WP2uvrA” value (Escherichia coli WP2uvrA; S9 mix −, dose 185 μg/plate) was 20 and the “Number of revertant colonies WP2uvrA” value (Escherichia coli WP2uvrA; S9 mix −, dose 556 μg/plate) was 22. The “Number of revertant colonies WP2uvrA” value (Escherichia coli WP2uvrA; S9 mix −, dose 1667 μg/plate) was 19, the “Number of revertant colonies WP2uvrA” value (Escherichia coli WP2uvrA; S9 mix −, dose 5000 μg/plate) was 14 and the “Number of revertant colonies TA98” value ([2]; S9 mix +, dose 62 μg/plate) was 38. The “Number of revertant colonies TA98” value ([2]; S9 mix −, dose 62 μg/plate) was 29, the “Number of revertant colonies TA100” value ([3]; S9 mix +, dose 6.9 μg/plate) was 134 and the “Number of revertant colonies TA100” value ([3]; S9 mix +, dose 21 μg/plate) was 123. For the same molecule, the “Number of revertant colonies TA100” value ([3]; S9 mix +, dose 62 μg/plate) was 108, the “Number of revertant colonies TA100” value ([3]; S9 mix +, dose 185 μg/plate) was 103 and the “Number of revertant colonies TA100” value ([3]; S9 mix +, dose 556 μg/plate) was 99. The “Number of revertant colonies TA100” value ([3]; S9 mix +, dose 1667 μg/plate) was 67, the “Number of revertant colonies TA100” value ([3]; S9 mix +, dose 5000 μg/plate) was 43 and the “Number of revertant colonies TA100” value ([3]; S9 mix −, dose 6.9 μg/plate) was 88. The “Number of revertant colonies TA100” value ([3]; S9 mix −, dose 21 μg/plate) was 91, the “Number of revertant colonies TA100” value ([3]; S9 mix −, dose 62 μg/plate) was 93 and the “Number of revertant colonies TA100” value ([3]; S9 mix −, dose 185 μg/plate) was 92. The “Number of revertant colonies TA100” value ([3]; S9 mix −, dose 556 μg/plate) was 59, the “Number of revertant colonies TA100” value ([3]; S9 mix −, dose 1667 μg/plate) was 29 and the “Number of revertant colonies TA100” value ([3]; S9 mix −, dose 5000 μg/plate) was 12. The “Number of revertant colonies TA1537” value ([4]; S9 mix +, dose 6.9 μg/plate) was 13, the “Number of revertant colonies TA1537” value ([4]; S9 mix +, dose 21 μg/plate) was 11 and the “Number of revertant colonies TA1537” value ([4]; S9 mix +, dose 62 μg/plate) was 12. The “Number of revertant colonies TA1537” value ([4]; S9 mix +, dose 185 μg/plate) was 12, the “Number of revertant colonies TA1537” value ([4]; S9 mix +, dose 556 μg/plate) was 8 and the “Number of revertant colonies TA1537” value ([4]; S9 mix +, dose 1667 μg/plate) was 3. For the same molecule, the “Number of revertant colonies TA1537” value ([4]; S9 mix +, dose 5000 μg/plate) was 1, the “Number of revertant colonies TA1537” value ([4]; S9 mix −, dose 6.9 μg/plate) was 8 and the “Number of revertant colonies TA1537” value ([4]; S9 mix −, dose 21 μg/plate) was 7. The “Number of revertant colonies TA1537” value ([4]; S9 mix −, dose 62 μg/plate) was 8, the “Number of revertant colonies TA1537” value ([4]; S9 mix −, dose 185 μg/plate) was 7 and the “Number of revertant colonies TA1537” value ([4]; S9 mix −, dose 556 μg/plate) was 2. For the same molecule, the “Number of revertant colonies TA1537” value ([4]; S9 mix −, dose 1667 μg/plate) was 3 and the “Number of revertant colonies TA1537” value ([4]; S9 mix −, dose 5000 μg/plate) was 2.

Source: patent publication US10988462B2, “Pyrazole compounds substituted with heteroaryl and pharmaceutical use thereof” (Japan Tobacco Inc., priority 2018, dated 2021)
